Assay results reported in ChEMBL document CHEMBL1201862, “PubChem BioAssay data set” (2004).
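Compound exposure: 48 hours, 5 concentrations, 96-well plates. GI50 marks 50% less growth.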 Active and inactive are the calls of the source. No stated cut-off is given here; in the data, active = GI50 up to about 1.1 µM and inactive = higher.

Experiments:
Experiment in all cases: NCI-60 cell line screen, 48 h
[1] = system: ACHN
[2] = system: MDA-MB-231
[3] = system: HL-60
[4] = system: EKVX
[5] = system: NCI-H522
[6] = system: SN12C
[7] = system: OVCAR-3
[8] = system: SK-MEL-5
[9] = system: DU-145
[10] = system: KM12
[11] = system: NCI-H226
[12] = system: SF-295
[13] = system: Malme-3M
[14] = system: HOP-92
[15] = system: UACC-62
[16] = system: COLO 205
[17] = system: TK-10
[18] = system: NCI/ADR-RES
[19] = system: MOLT-4

Measured: GI50

O=C(N/N=C/c1ccc2c(c1)CCC2)c1ccccc1O
inactive: [1] 18.6 µM | [2] 19.5 µM | [3] 23.2 µM | [4] 27.1 µM | [5] 21.5 µM | [6] 23.1 µM | [7] 16.8 µM | [8] 33.9 µM | [9] 48 µM | [10] 20.9 µM | [11] 32.1 µM | [12] 16.4 µM | [13] 21.4 µM | [14] 24.5 µM | [15] 22 µM | [16] 53.7 µM | [17] 23 µM | [18] 24.4 µM | [19] 36.9 µM

CCOC(=O)N/N=C/C1=NN(C(=O)OCC)[S+]([O-])C1C (centres undefined)
inactive: [1] > 100 µM | [2] > 100 µM | [3] > 100 µM | [4] > 100 µM | [5] > 100 µM | [6] > 100 µM | [7] > 100 µM | [8] > 100 µM | [9] > 100 µM | [10] > 100 µM | [11] > 100 µM | [12] > 100 µM | [13] > 100 µM | [14] > 100 µM | [15] > 100 µM | [16] > 100 µM | [17] > 100 µM | [18] > 100 µM | [19] > 100 µM

O=[N+]([O-])c1cc(-c2nc(-c3ccccc3)c(-c3ccccc3)[nH]2)c(O)c([N+](=O)[O-])c1
inactive: [1] 21.6 µM | [2] 22.4 µM | [3] 25.6 µM | [4] 23.4 µM | [5] 20.2 µM | [6] 26.5 µM | [7] 33 µM | [8] 17.7 µM | [9] 21.9 µM | [10] 24.9 µM | [11] 20.1 µM | [12] 22.3 µM | [13] 21.1 µM | [14] 19.8 µM | [15] 17.5 µM | [16] 21.8 µM | [17] 28.5 µM | [18] 19.1 µM | [19] 22.8 µM

Nc1c(Br)cc(-c2nc3ccccc3s2)cc1Br
inactive: [1] > 100 µM | [2] > 100 µM | [3] > 100 µM | [4] > 100 µM | [5] > 100 µM | [6] > 100 µM | [7] > 100 µM | [8] > 100 µM | [9] > 100 µM | [10] 75.7 µM | [11] > 100 µM | [12] > 100 µM | [13] > 100 µM | [14] > 100 µM | [15] > 100 µM | [16] > 100 µM | [17] 6.85 µM | [18] > 100 µM | [19] > 100 µM

CC(C)(Oc1ccc(Cl)cc1)C(=O)N(C(=O)N1CCN(c2ccccc2)CC1)c1ccccc1
inactive: [1] 9.71 µM | [2] > 100 µM | [3] 4.16 µM | [4] 5.83 µM | [5] 5.57 µM | [6] 42.3 µM | [7] 26.7 µM | [8] 4.68 µM | [9] > 100 µM | [10] 6.22 µM | [11] 8.09 µM | [12] 33.2 µM | [13] > 100 µM | [14] > 100 µM | [15] 5.83 µM | [16] 6.49 µM | [17] 68.5 µM | [18] 7.05 µM | [19] 4.12 µM

N=C(N)NCCCC(=O)O
inactive: [1] > 100 µM | [2] > 100 µM | [3] > 100 µM | [4] > 100 µM | [5] > 100 µM | [6] > 100 µM | [7] > 100 µM | [8] > 100 µM | [9] > 100 µM | [10] > 100 µM | [11] > 100 µM | [12] > 100 µM | [13] > 100 µM | [14] > 100 µM | [15] > 100 µM | [16] > 100 µM | [17] > 100 µM | [18] > 100 µM | [19] > 100 µM
